In ChEMBL document CHEMBL1157878, “Synthesis and antiproliferative properties of ibuprofen-oligo(3-hydroxybutyrate) conjugates” (Eur J Med Chem, 2010):
pIC50: −log10 of the molar value.

How the values were obtained:
HT-29 = experiment: Cytotoxicity against human HT-29 cells after 72 hrs by MTT assay; type: functional, cell-based; settings: HT-29, 72 h
HCT-116 = experiment: Cytotoxicity against human HCT116 cells after 72 hrs by MTT assay; type: functional, cell-based; settings: HCT-116, 72 h

CC(C)Cc1ccc(C(C)C(=O)O)cc1 (stereo unspecified) [IBUPROFEN]
pIC50 (HT-29): 3.26 | pIC50 (HCT-116): 3.35

CC(C)Cc1ccc(C(C)C(=O)OC(C)CC(=O)OC(C)CC(=O)OC(C)CC(=O)OC(C)CC(=O)OC(C)CC(=O)OC(C)CC(=O)O)cc1 (stereo unspecified)
pIC50 (HT-29): 4.11 | pIC50 (HCT-116): 4.28

CC(C)Cc1ccc(C(C)C(=O)OC(C)CC(=O)OC(C)CC(=O)OC(C)CC(=O)OC(C)CC(=O)O)cc1 (stereo unspecified)
pIC50 (HT-29): 4.43 | pIC50 (HCT-116): 4.51
